“Also recorded” adds a separate entry of the source.
What was measured:
[1] = system: U937 cells; assay: miRNA microarray; assay type: cell-based, human; conditions: shikonin at IC50 concentration, 24 h
Description: miRNA from U937 cells after 24 h of treatment with shikonin at IC50 concentration was isolated using miRNeasy Kit from Qiagen (Hilden, Germany) according to the manufacture's instruction. The quality of miRNA was checked by gel analysis using the Small RNA Nano chip assay on an Agilent 2100 Bioanalyzer (Agilent Technologies GmbH, Germany). The miRNA microarray was performed at the Institute for Molecular Biology (IMB). Microarray experiments were performed in duplicates for treated and untreated samples. Human miRNA microarray chips (8 × 60 K, Agilent Technologies) were used. Probe labeling and hybridization were carried out following the miRNA microarray system with miRNA complete labeling and hyb kit protocol (Agilent Technologies). Briefly, extracted RNA was treated with phosphatase. Dephosphorylated RNA was fluorescently labeled by ligation of Cyanine 3-pCp molecules to the 3′ end of RNA molecules using Agilent's miRNA Complete Labeling and Hyb Kit. The labeled RNA was desalted and hybridized for 20 hours at 55°C and 20 rpm. Microarray slides were washed and scanned with Agilent Microarray Scanning system. Images were analyzed and data were extracted, background subtracted, and normalized using the standard procedures of Agilent Feature Extraction Software. The expression data obtained was filtered with Chipster data analysis platform. These steps include filtering of miRNAs by two times standard deviation of deregulated genes and a subsequent assessment of significance using empirical Bayes t-test (P < 0.05).

[2] = system: p-ribosomal protein S6; assay: FlowCellect PI3K-mTOR signaling cascade assay (flow cytometry), p-ribosomal protein S6; assay type: cell-based; conditions: U937 cells, 0.3 μM shikonin, 24 h
Text: The FlowCellect PI3K-mTOR signaling cascade assay kit (Merck Millipore, Germany) was used to analyze the effect of shikonin on the PI3K-mTOR signaling pathway. The assay is based on two directly conjugated phospho-specific signaling antibodies against phosphorylated Akt and phosphorylated ribosomal S6 protein, which are both important signaling nodes of the mTOR cascade. The phosphorylation of Akt is indicative of the upstream PI3K signaling, marking the cells initiation into proliferation or cell survival. Phosphorylated-ribosomal S6 protein is indicative of downstream mTOR and p70S6K signaling leading to protein translation. The assay was performed according to the manufacture's protocol. Briefly, 1.5 × 10^6 U937 cells were treated with 0.3 μM shikonin or DMSO solvent control and incubated for 24 h. Subsequently, cells were fixed on ice for 20 min using the supplied fixation buffer. […] Subsequently, cells were measured in a LSR-Fortessa FACS analyzer (Becton-Dickinson, Germany) and shikonin fluorescence was compensated for the respective channels. For each sample, 1 × 10^4 cells were counted. The PerCP signal was measured with 488 nm excitation and detected using a 670/30 nm bandpass filter. The Alexa Fluor 488 signal was analyzed with 488 nm excitation and detected using a 530/30 nm bandpass filter. […] Cytographs were analyzed using FlowJo software (Celeza, Switzerland). […]

[3] = system: U937 cells; assay: mRNA microarray; assay type: cell-based, human; conditions: shikonin at IC50 concentration, 24 h vs DMSO
Description: Total RNA from U937 cells after 24 h of treatment with shikonin at IC50 concentration or DMSO solvent control was isolated using RNeasy Kit from Qiagen (Hilden, Germany) according to the manufacture's instruction. The quality of total RNA was checked by gel analysis using the total RNA Nano chip assay on an Agilent 2100 Bioanalyzer (Agilent Technologies GmbH, Berlin, Germany). Only samples with RNA index values greater than 9.3 were selected for expression profiling. Microarray experiments were performed in duplicates for treated and untreated samples. Biotin-labeled cRNA samples for hybridization on Illumina Human Sentrix-HT12 Bead Chip arrays (Illumina, Inc.) were prepared according to Illumina's recommended sample labeling procedure based on the modified Eberwine protocol. Biotin-16-UTP was purchased from Roche Applied Science (Penzberg, Germany). The cRNA was column purified with TotalPrep RNA Amplification Kit and eluted in 60 μL of water. Quality of cRNA was controlled using the RNA Nano Chip Assay on an Agilent 2100 Bioanalyzer and spectrophotometrically quantified (NanoDrop). Hybridization was also performed according the manufacturer's recommendations. Microarray scanning was done using a Beadstation array scanner, setting adjusted to a scaling factor of 1 and PMT settings at 430. Data was extracted for each bead individually, and outliers were removed when the MAD (median absolute deviation) was greater than 2.5. Data analysis was performed by using the quantile normalization algorithm without background subtraction, and differentially regulated genes were defined by calculating the standard deviation differences of a given probe in a one-by-one comparison of samples or groups. The expression data obtained was filtered with Chipster data analysis platform. These steps include filtering of genes by two times standard deviation of deregulated genes and a subsequent assessment of significance using empirical Bayes t-test (P < 0.05).

CC(C)=CC[C@@H](O)C1=CC(=O)c2c(O)ccc(O)c2C1=O [shikonin]
FC miRNA miR-19b-2-5p [1]: +5.2
FC miRNA miR-20b-3p [1]: +3.7
FC miRNA miR-30a-3p [1]: +2.9
FC miRNA miR-33b-5p [1]: +3.1
FC miRNA miR-92a-3p [1]: +2.7
FC miRNA miR-155-3p [1]: +3.4
FC miRNA miR-181a-2-3p [1]: +3.2
FC miRNA miR-193b-3p [1]: +2.7
FC miRNA miR-223-5p [1]: +2.7
FC miRNA miR-513a-5p [1]: −4.7
FC miRNA miR-630 [1]: −5.1
FC miRNA miR-638 [1]: −6.1
FC miRNA miR-1185-5p [1]: −5.2
FC miRNA miR-1207-5p [1]: −6.3
FC miRNA miR-1246 [1]: −6.0
FC miRNA miR-1290 [1]: −6.2
FC miRNA miR-1915-3p [1]: −13.8
FC miRNA miR-2861 [1]: −9.8
FC miRNA miR-3907 [1]: +2.8
FC miRNA miR-4299 [1]: −30.6
Phosphorylation of ribosomal protein S6 [2]: remained almost unchanged; also recorded: no effect
FC mRNA ACTB (Actin, cytoplasmic 1) [3]: −6.8
FC mRNA ACTG1 (Actin, cytoplasmic 2) [3]: −11.9
FC mRNA ALDOA (Fructose-bisphosphate aldolase A) [3]: −17.6
FC mRNA ANXA1 (Annexin A1) [3]: +4.1
FC mRNA ARPC1B (Actin-related protein 2/3 complex subunit 1B) [3]: −7.8
FC mRNA CCL2 (C-C motif chemokine 2) [3]: +4.2
FC mRNA CCT7 (T-complex protein 1 subunit eta) [3]: −7.8
FC mRNA ERP29 (Endoplasmic reticulum resident protein 29) [3]: −6.0
FC mRNA HMOX1 (Heme oxygenase 1) [3]: +4.1
FC mRNA HSPD1 (60 kDa heat shock protein, mitochondrial) [3]: −6.6
FC mRNA JUN (Transcription factor AP-1) [3]: +3.2
FC mRNA LY96 (Lymphocyte antigen 96) [3]: +4.5
FC mRNA MAFB (Transcription factor MafB) [3]: +3.5
FC mRNA MLLT11 (Protein AF1q) [3]: +6.2
FC mRNA NCF1 (Neutrophil cytosol factor 1) [3]: −5.9
FC mRNA PSMC4 (26S protease regulatory subunit 6B) [3]: −7.7
FC mRNA S100A8 (Protein S100-A8) [3]: +4.7
FC mRNA S100A9 (Protein S100-A9) [3]: +4.2
FC mRNA SLC39A3 (Zinc transporter ZIP3) [3]: −6.2
FC mRNA VIM (Vimentin) [3]: +4.2

Reference: PMC3703888, “Integration of Different “-omics” Technologies Identifies Inhibition of the IGF1R-Akt-mTOR Signaling Cascade Involved in the Cytotoxic Effect of Shikonin against Leukemia Cells” (Evidence-based Complementary and Alternative Medicine : eCAM, 2013)
